Molecules are shown by their SMILES. Several values for one entry are separate records, joined by “and”; a condition that tells them apart may be missing. Identical values can stand only once. Like-named read-outs stand apart in the source and are kept apart here.

For data set [1], the target named is T1, Mouse pregnane X receptor (mPXR) (Mus musculus, UniProt O54915).
T1 construct: expressed in transfected cells; host or cells: HEK293T
Nature of the data set: mPXR reporter (MRP2) activity in HEK293T cells. The data set is classed as cell-based. On the procedure:
Reverse transfection assays were performed in Caco‐2 cells as previously published with the following modifications (Kublbeck et al, 2015). 3.0 × 10^4 cells per well were transfected using pSG5‐PXR plasmid (300 ng/well), β‐Gal expression plasmid (600 ng/well), and CYP3A4‐luciferase reporter (500 ng/well) (Huang et al, 2007). After 24‐h transfection using Lipofectamine® LTX ([…] of plasmid), cells were exposed to FKK5 for 24 h. Cell lysates were prepared for β‐Gal and luciferase assays as previously published (Huang et al, 2007). The data are expressed as mean ± SD RLU (relative light units from luciferase assay) normalized to β‐Gal activity in the same well. Differences were tested using 2‐way ANOVA with Tukey's multiple comparison test, and P < 0.05 was considered significant (*). Standard transient transfection assays (PXR, CAR) in HEK293T cells were performed as previously published (Huang et al, 2007).

For another data set, the system named is Cyp3a11. The data set is described as follows: PXR target gene expression in hPXR mice (mice expressing the human PXR gene) after FKK6 gavage. The data set is classed as in vivo, mouse. As to conditions: both sexes, C57BL/6-Nr1i2tm1(NR1I2)Arte (hPXR mice), mouse, 500 μM, 5 doses (60 h), individual mice. How it is done:
(§1) (Scheer et al, 2010) were administered 10% DMSO (n = 3) or FKK6 (n = 3) in 3 or 5 doses, with each dose interval of 12 h. Each gavage dose volume was 100 μl. 2–4 h after the dosing period, mice were sacrificed, and tissues were harvested for further analysis. The mouse studies were performed three independent times over an 18‐month period. All purchased mice were acclimatized in the Einstein vivarium for ~ 2 weeks before experiments started. […]. The room temperature was maintained at 25 ± 2°C with 55 ± 5% humidity. All studies were approved by the Institute of Animal Studies at the Albert Einstein College of Medicine, INC (IACUC # 20160706, 20160701 and preceding protocols), and specific animal protocols were also approved by additional protocols (IACUC# 20170406, 20170504) and Animal Care and Use Review Office (ACURO) of the US Army Medical Research and Materiel Command (PR160167, W81XWH‐17‐1‐0479). […]
(§2) Mouse small, large intestine and liver samples were collected and total RNAs were […]
(§3) isolated. […] Each tissue PCR was […]
(§4) repeated in quadruplicate. The expression was normalized to internal control, GAPDH. ( b,d) The histograms show mean (95 %CI) values, c, mean (SD) and two way ANOVA followed with Tukey's post hoc test. The entire experiment was repeated n = 3 for reproducibility. The data shown is one representative experiment .

The subject of the next data set is hPXR mice. Described as above. Particulars: for mdr1 fold expression / Cyp3a11 fold expression: Fig 4f. The data set is classed as in vivo, mouse. On the procedure:
as §1, §2, §3, §4

In another data set the test system is mdr1. The data set is described as above. As to conditions: both sexes, C57BL/6-Nr1i2tm1(NR1I2)Arte (hPXR mice), mouse, 500 μM, 5 doses (60 h), individual mice. The data set is classed as in vivo, mouse. On the procedure: as §1, §2, §3, §4
The mark [2] stands for this setting: 500 μM, 5 doses (60 h), individual mice.

T1 sequence (O54915 whole entry): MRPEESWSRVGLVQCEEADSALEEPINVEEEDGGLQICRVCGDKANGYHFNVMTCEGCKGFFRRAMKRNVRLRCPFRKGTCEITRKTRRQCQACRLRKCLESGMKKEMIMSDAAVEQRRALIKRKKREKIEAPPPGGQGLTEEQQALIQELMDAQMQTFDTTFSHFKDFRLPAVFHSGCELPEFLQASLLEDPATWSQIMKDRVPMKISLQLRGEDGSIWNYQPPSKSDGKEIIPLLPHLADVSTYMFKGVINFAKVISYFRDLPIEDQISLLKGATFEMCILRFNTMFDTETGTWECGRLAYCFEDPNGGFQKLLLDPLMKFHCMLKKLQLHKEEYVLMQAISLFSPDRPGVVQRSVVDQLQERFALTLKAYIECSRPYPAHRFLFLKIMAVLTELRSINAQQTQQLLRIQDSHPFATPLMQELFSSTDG

`C#CCC(O)(c1ccncc1)c1cc2ccccc2n1S(=O)(=O)c1ccccc1` (centres unmarked) [FKK6]: the “mouse PXR activation” value in data set [1] is on record as “did not significantly activate”. The fold induction at 60 h, 500 µM came to 1.81 in the data set on Cyp3a11 (in vivo, read-out: Cyp3a11 fold induction, Liver); 1.85 in the data set with Cyp3a11 (in vivo, read-out: Cyp3a11 fold induction, Small Intestine); 0.87 in the data set on Cyp3a11 (large intestine, oral, read-out: Cyp3a11 fold induction, Large Intestine); 0.75 with Cyp3a11 (liver, oral, read-out: Cyp3a11 fold induction, Liver); 0.85 with Cyp3a11 (small intestine, oral, read-out: Cyp3a11 fold induction, Small Intestine); 1.85 with mdr1 (in vivo, read-out: mdr1 fold induction, Large Intestine). Also, the fold induction at 60 h, 500 µM with mdr1 (large intestine, oral, read-out: mdr1 fold induction, Large Intestine) worked out at 1.96; in the data set on mdr1 (small intestine, oral, read-out: mdr1 fold induction, Small Intestine), 1.84. Moreover, in the data set on hPXR mice (setting [2]), the “Cyp3a11 fold induction, Large Intestine” value is 0.5 fold. Further, the “Cyp3a11 fold induction, Liver” value in the data set with hPXR mice (setting [2]) is reported as 0.51 fold. Besides, in the data set on hPXR mice (setting [2]), the “Cyp3a11 fold induction, Small Intestine” value was determined as 0.81 fold. Further, in the data set with hPXR mice (setting [2]), the “mdr1 fold induction, Large Intestine” value came to 2.03 fold. Besides, the “mdr1 fold induction, Liver” value in the data set on hPXR mice (setting [2]) is “distinct increase and 4.6 fold and 5.65 fold and 2.73 fold”. In addition, the “mdr1 fold induction, Small Intestine” value with hPXR mice (setting [2]) is 1.7 fold and 2.02 fold. For the same molecule, the mdr1 fold expression in the data set with hPXR mice (Large Intestine) is 2.55 fold; with hPXR mice (Liver), 0.93 fold and 1.05 fold and 1.28 fold; in the data set on hPXR mice (Small Intestine), 1.46 fold and 1.56 fold and 1.59 fold. In addition, the Cyp3a11 fold expression with hPXR mice (Liver) is 2.01 fold and 1.78 fold and 1.23 fold; in the data set with hPXR mice (Small Intestine) it was 3.71 fold and 3.81 fold and 4.42 fold.

Values taken from PMC7136958, “Targeting the pregnane X receptor using microbial metabolite mimicry” (EMBO Molecular Medicine, 2020).
